This note sets out measurements from patent publication US8404696B2, “Quinazoline-2,4-dione derivative, and medical compositions for the prophylaxis and treatment of cranial nerve disease containing the same” (Shin Poong Pharmaceutical Co., Ltd., priority 2008, dated 2013).

Experiment [1] deals with mixed culture of nerve cells-glial cells. The experiment can be described thus: Protecting effect on NMDA-induced nerve cell death (LDH release). Format: cell-based, ICR mouse. The following applies: 100 μM NMDA, LDH release after 24 hours. A digest of the protocol:
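Embryonic day-14 ICR mouse cortical neurons seeded on cortical glia, Ara-C-treated, then exposed at day 12–15 for 20 min to 100 μM NMDA with compound at 1 or 2 μg/mL. LDH released 24 h later measured colorimetrically as a cell-death index.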

Experiment [2] deals with mouse brain cells. The experiment can be described thus: Inhibitory effect on ROS production in brain cells (DCF-DA, NMDA-induced). Type of experiment: cell-based. The following applies: 24 h; dose suppressing 50% of production of reactive oxygen compared to control; mouse brain cells; read-out: ROS inhibitory effect ID50. The protocol:
Oxidative stress was measured to test inhibitory effects on the production of reactive oxygen species (ROS) by using DCF-DA, which is a fluorescent probe. Brain cells were obtained from brain cortex of mouse to prepare cell solution with 2×10^6 cells/ml. Each brain cell was treated with 11 μM of DCF-DA followed by reaction in 37° C., 5% CO2 incubator for an hour. After washing twice, Compound 3 was treated with a concentration of 125 μg/ml and 250 μg/ml. At the same time, 300 μM of NMDA was treated and it was incubated in 37° C., 5% CO2 incubator for 24 hours.
(§1) ROS inhibitory effect of compounds was represented to the dose suppressing 50% of production of reactive oxygen compared to control. […] The activity of superoxide dismutase (SOD) was measured by using a kit acquired in Sigma.

Experiment [3] deals with superoxide dismutase (SOD). The experiment can be described thus: Increase of superoxide dismutase (SOD) activity in mouse brain cells. The following applies: 100 μg/ml. Format: cell-based. As to the method:
as §1

Experiment [4] deals with thoracic aorta of rats. The experiment can be described thus: Relaxing effect on thoracic aorta contracted by phenylephrine (organ bath). The following applies: Rattus norvegicus; 67 μg/mL; phenylephrine 0.5 μM; mean n = 3; read-out: Relaxation percentage. Set-up: species or system rats of SD species. A digest of the protocol:
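Thoracic aortic rings (2 mm) from ether-anesthetized male SD rats (250-300 g) were mounted in Krebs buffer gassed with 95% O2/5% CO2 and equilibrated at 1.0 g basal tension for 90 min. After stable contraction with phenylephrine (0.5 μM), compounds were added and relaxation recorded.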

Experiment [5] deals with pentylentetrazole (PTZ)-induced convulsion. Put plainly: Anti-convulsant effect, pentylentetrazole (PTZ) test. Type of experiment: in vivo. The following applies: 10 mg/kg intraperitoneally, PTZ 80 mg/kg subcutaneously; for mortality rate / Induction percentage of convulsion: (animals/total); for mortality rate: negative control 70(17/23); for Induction percentage of convulsion: negative control 100(23/23); for Initiation time of convulsion: negative control 5.0 ± 0.7; for Duration of convulsion: negative control 46.7 ± 3.3. In outline: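 Compound was given intraperitoneally at 10 mg/kg before PTZ challenge. The read-outs were time to convulsion onset, time until convulsions fully disappeared, and mortality.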

SMILES strings stand for the structures. Converted amounts (≈) assume the structure as drawn.

On to `CCOC(=O)N(CCCCNCCCn1c(=O)[nH]c2ccccc2c1=O)CCCn1c(=O)[nH]c2ccccc2c1=O` [Compound 5, [3-(2,4-dioxo-1,4-dihydro-2H-quinazolin-3-yl)propyl]-{4-[3-(2,4-dioxo-1,4-dihydro-2H-quinazolin-3-yl)propylamino]butyl}carbamic Acid ethyl ester], for which the “Inhibitory effect of cell death by NMDA-induced excitable neurotoxicity” value (shortened to “Inhibitory effect of cell death”) in experiment [1] (1 μg/ml compound) is listed as 11.4%; in experiment [1] (2 μg/ml compound) it was 39.4%. For the same compound, the IC50 in experiment [2] turned out to be 24.4 ± 10.5 µg/mL (≈ 43.2 µM). Further, the “Increase of SOD activity, compared to control” value (from here on “Increase of SOD activity”) in experiment [3] is 2.5 ± 2.8. In addition, the inhibition at 67 µg/mL in experiment [4] amounted to 19.2%.
For `CC(=O)N(CCCCN(CCCn1c(=O)[nH]c2ccccc2c1=O)Cc1ccccc1)CCCn1c(=O)[nH]c2ccccc2c1=O` [Compound 13, N-(4-{benzyl-[3-(2,4-dioxo-1,4-dihydro-2H-quinazolin-3-yl)propyl]amino}butyl)-N-[3-(2,4-dioxo-1,4-dihydro-2H-quinazolin-3-yl)propyl]acetamide], the “Inhibitory effect of cell death” value in experiment [1] (1 μg/ml compound) worked out at 17.4%; in experiment [1] (2 μg/ml compound), 23.0%. Moreover, the IC50 in experiment [2] worked out at 87.3 ± 10.9 µg/mL (≈ 140 µM). For the same compound, in experiment [3], the “Increase of SOD activity” value was determined as 7.6 ± 2.9. In experiment [4], the inhibition at 67 µg/mL turned out to be 9.3%.
`CCCCCCn1c(=O)n(CCCN(CCCCN(CCCn2c(=O)c3ccccc3n(CCCCCC)c2=O)C(=O)OC(C)(C)C)C(=O)OC(C)(C)C)c(=O)c2ccccc21` [Compound 32, (4-{tert-butoxycarbonyl-[3-(1-hexyl-2,4-dioxo-1,4-dihydro-2H-quinazolin-3-yl)propyl]amino}butyl)-[3-(1-hexyl-2,4-dioxo-1,4-dihydro-2H-quinazolin-3-yl)propyl]carbamic acid tert-butyl ester]: in experiment [1] (1 μg/ml compound), the “Inhibitory effect of cell death” value stood at 32.0%. Moreover, the “Inhibitory effect of cell death” value in experiment [1] (2 μg/ml compound) is 29.8%. For the same compound, the IC50 in experiment [2] was 14.4 ± 7.6 µg/mL (≈ 16.7 µM). Besides, the “Increase of SOD activity” value in experiment [3] amounted to 0.3 ± 7.1. For the same compound, in experiment [5], the mortality rate is reported as 50(3/6) %, the “Induction percentage of convulsion” value is given as 100(5/6) %, the “Initiation time of convulsion” value stood at 11.3 ± 4.5 min and the Duration of convulsion was found to be 29.8 ± 12.0 min.
For the compound `O=C(N(CCCCN(CCCn1c(=O)[nH]c2ccccc2c1=O)C(=O)C(F)(F)F)CCCn1c(=O)[nH]c2ccccc2c1=O)C(F)(F)F` [Compound 37, N-[3-(2,4-dioxo-1,4-dihydro-2H-quinazolin-3-yl)propyl]-N-{4-[[3-(2,4-dioxo-1,4-dihydro-2H-quinazolin-3-yl)propyl]-(2,2,2-trifluoroacetyl)amino]butyl}-2,2,2-trifluoroacetamide], the “Inhibitory effect of cell death” value amounted to 27.3% in experiment [1] (1 μg/ml compound) and 25.0% in experiment [1] (2 μg/ml compound). Also, the IC50 in experiment [2] worked out at 22.9 ± 17.3 µg/mL (≈ 33.5 µM). Further, in experiment [3], the “Increase of SOD activity” value came to 2.0 ± 5.8. For the same compound, the inhibition at 67 µg/mL in experiment [4] was 7.9%.
Regarding `Cc1ccc(S(=O)(=O)N(CCCCNCCCn2c(=O)[nH]c3ccccc3c2=O)CCCn2c(=O)[nH]c3ccccc3c2=O)cc1` [Compound 40, N-[3-(2,4-dioxo-1,4-dihydro-2H-quinazolin-3-yl)propyl]-N-{4-[3-(2,4-dioxo-1,4-dihydro-2H-quinazolin-3-yl)propylamino]butyl}-4-methylbenzenesulfonamide], the “Inhibitory effect of cell death” value in experiment [1] (2 μg/ml compound) is 34.5%. Moreover, in experiment [2], the IC50 worked out at 31 ± 8.1 µg/mL (≈ 47.9 µM). Also, the “Increase of SOD activity” value in experiment [3] amounted to 8.3 ± 3.2. Moreover, in experiment [5], the mortality rate is on record as 83(5/6) %, the “Induction percentage of convulsion” value is given as 100(6/6) %, the “Initiation time of convulsion” value amounted to 11.2 ± 2.4 min and the Duration of convulsion is on record as 42.3 ± 8.5 min.
